Test results as given in patent publication US20130210846A1, “USE OF NOVEL PAN-CDK INHIBITORS FOR TREATING TUMORS” (BAYER INTELLECTUAL PROPERTY GMBH, priority 2010, published 2013).

Key:
Caki2 = assay: Proliferation assay Caki2; type: cell-based; conditions: Homo sapiens, CAKI-2, 96 h; Caki2, kidney carcinoma; 4 days, crystal violet
Procedure: (§1) Cultivated human tumor cells (originally obtained from ATCC, HeLa-MaTu and HeLa-MaTu-ADR, originally obtained from Epo GmbH, Berlin, Germany) were plated at a density of 1000 to 5000 cells/measuring point, depending on the growth rate of the cell line, in a 96-well multititer plate in 200 μl of growth medium (DMEM/HAMS F12, 2 mM L-glutamine, 10% fetal calf serum). After 24 hours the cells of one plate (zero-point plate) were stained with crystal violet (see below), whereas the medium of the other plates was replaced with fresh culture medium (200 μl), to which the test substances had been added at various concentrations (0 μM, and in the range 0.01-30 μM; the final concentration of the solvent dimethyl sulfoxide was 0.5%). The cells were incubated for 4 days in the presence of the test substances. Cellular proliferation was determined by staining the cells with crystal violet: the cells were fixed by adding 20 μl/measuring point of an 11% glutaraldehyde solution for 15 min at room temperature. After washing the fixed cells with water three times, the plates were dried at room temperature. The cells were stained by adding 100 μl/measuring point of a 0.1% crystal violet solution (pH adjusted to pH3 by adding acetic acid). After washing the stained cells with water three times, the plates were dried at room temperature. The dye was dissolved by adding 100 μl/measuring point of a 10% acetic acid solution. The extinction was determined photometrically at a wavelength of 595 nm. The percentage change in cell growth was calculated by standardization of the measured values to the extinction values of the zero-point plate (=0%) and the extinction of the untreated (0 μM) cells (=100%). The measured data were standardized to 0% inhibition (cell proliferation without inhibitor) and 100% inhibition (zero-point plate). The IC50 values were determined by means of a 4-parameter fit using the company's own software.
(§2) The substances were examined in the following cell lines which, in an exemplary manner, represent the stated indications: […]

MDA-MB 453 = assay: Proliferation assay MDA-MB 453; type: cell-based; conditions: Homo sapiens, 96 h; MDA-MB 453, estrogen receptor-negative mamma carcinoma; 4 days, crystal violet
Procedure: as §1, §2

Caco-2 = assay: Proliferation assay Caco-2; type: cell-based, human; conditions: Caco-2, colon/rectum carcinoma; 4 days, crystal violet
Procedure: as §1, §2

786-O = assay: Proliferation assay 786-O; type: cell-based; conditions: Homo sapiens, 786-0, 96 h, kidney carcinoma, 4 days, crystal violet
Procedure: as §1, §2

SK-BR-3 = assay: Proliferation assay SK-BR-3; type: cell-based; conditions: Homo sapiens, 96 h; SK-BR-3, estrogen receptor-negative mamma carcinoma; 4 days, crystal violet
Procedure: as §1, §2

MDA-MB 231 = assay: Proliferation assay MDA-MB 231; type: cell-based; conditions: Homo sapiens, 96 h; MDA-MB 231, estrogen receptor-negative mamma carcinoma; 4 days, crystal violet
Procedure: as §1, with “After washing the fixed cells with water three times, the plates were dried at room temperature. The cells were stained by adding 100 μl/measuring point of a 0.1% crystal violet solution (pH adjusted to pH3 by adding acetic acid). After washing the stained cells with water three times, the plates were dried at room temperature. The dye was dissolved by adding 100 μl/measuring point of a 10% acetic acid solution.” left out, “The measured data were standardized to 0% inhibition (cell proliferation without inhibitor) and 100% inhibition (zero-point plate).” left out, “software. […]” for “software.”

HCT116 = assay: Proliferation assay HCT116; type: cell-based; conditions: Homo sapiens, HCT-116, 96 h; HCT116, colon/rectum carcinoma; 4 days, crystal violet
Procedure: as §1, §2

DU145 = assay: Proliferation assay DU145; type: cell-based, human; conditions: DU145, prostate carcinoma; 4 days, crystal violet
Procedure: as §1, §2

A375 = assay: Proliferation assay A375; type: cell-based; conditions: Homo sapiens, A-375, 96 h; A375, skin: melanoma; 4 days, crystal violet
Procedure: as §1, with “After washing the fixed cells with water three times, the plates were dried at room temperature. The cells were stained by adding 100 μl/measuring point of a 0.1% crystal violet solution (pH adjusted to pH3 by adding acetic acid). After washing the stained cells with water three times, the plates were dried at room temperature. The dye was dissolved by adding 100 μl/measuring point of a 10% acetic acid solution.” left out, “The measured data were standardized to 0% inhibition (cell proliferation without inhibitor) and 100% inhibition (zero-point plate).” left out, “software. […]” for “software.”

NCI-H460 = assay: Proliferation assay NCI-H460; type: cell-based, human; conditions: NCI-H460, non-small-cell bronchial carcinoma; 4 days, crystal violet
Procedure: as §1, §2

MCF7 = assay: Proliferation assay MCF7; type: cell-based, human; conditions: MCF7, estrogen receptor-positive mamma carcinoma; 4 days, crystal violet
Procedure: as §1, §2

HeLa-MaTu-ADR = assay: Proliferation assay HeLa-MaTu-ADR; type: cell-based, human; conditions: cervix carcinoma, 4 days, crystal violet
Procedure: as §1, §2

A431 = assay: Proliferation assay A431; type: cell-based; conditions: Homo sapiens, A-431, 96 h; A431, skin: epidermis; 4 days, crystal violet
Procedure: as §1, §2

PC3 = assay: Proliferation assay PC3; type: cell-based; conditions: Homo sapiens, PC-3, 96 h; PC3, prostate carcinoma; 4 days, crystal violet
Procedure: as §1, §2

SW480 = assay: Proliferation assay SW480; type: cell-based; conditions: Homo sapiens, 96 h; SW480, colon/rectum carcinoma; 4 days, crystal violet
Procedure: as §1, §2

HT29 = assay: Proliferation assay HT29; type: cell-based; conditions: Homo sapiens, HT-29, 96 h; HT29, colon/rectum carcinoma; 4 days, crystal violet
Procedure: as §1, §2

A549 = assay: Proliferation assay A549; type: cell-based; conditions: Homo sapiens, 96 h; A549, non-small-cell bronchial carcinoma; 4 days, crystal violet
Procedure: as §1, §2

HeLa = assay: Proliferation assay HeLa; type: cell-based; conditions: Homo sapiens, 96 h, cervix carcinoma, 4 days, crystal violet
Procedure: as §1, §2

[1] = target: T1, VEGF receptor tyrosine kinase-2 (VEGF-R2) (Homo sapiens, UniProt P35968); assay: VEGF receptor-2 kinase assay (Assay 3); type: biochemical; conditions: 8 μM ATP, poly-(Glu4Tyr), 10 min 22° C.; read-out: VEGF-R2 (Assay 3) Concentration for half-maximal inhibition of the enzyme activity, IC50
T1 construct: GST; made in house; host or cells: baculovirus-infected insect cells (Sf9)
T1 sequence (P35968 20-1356, species assumed): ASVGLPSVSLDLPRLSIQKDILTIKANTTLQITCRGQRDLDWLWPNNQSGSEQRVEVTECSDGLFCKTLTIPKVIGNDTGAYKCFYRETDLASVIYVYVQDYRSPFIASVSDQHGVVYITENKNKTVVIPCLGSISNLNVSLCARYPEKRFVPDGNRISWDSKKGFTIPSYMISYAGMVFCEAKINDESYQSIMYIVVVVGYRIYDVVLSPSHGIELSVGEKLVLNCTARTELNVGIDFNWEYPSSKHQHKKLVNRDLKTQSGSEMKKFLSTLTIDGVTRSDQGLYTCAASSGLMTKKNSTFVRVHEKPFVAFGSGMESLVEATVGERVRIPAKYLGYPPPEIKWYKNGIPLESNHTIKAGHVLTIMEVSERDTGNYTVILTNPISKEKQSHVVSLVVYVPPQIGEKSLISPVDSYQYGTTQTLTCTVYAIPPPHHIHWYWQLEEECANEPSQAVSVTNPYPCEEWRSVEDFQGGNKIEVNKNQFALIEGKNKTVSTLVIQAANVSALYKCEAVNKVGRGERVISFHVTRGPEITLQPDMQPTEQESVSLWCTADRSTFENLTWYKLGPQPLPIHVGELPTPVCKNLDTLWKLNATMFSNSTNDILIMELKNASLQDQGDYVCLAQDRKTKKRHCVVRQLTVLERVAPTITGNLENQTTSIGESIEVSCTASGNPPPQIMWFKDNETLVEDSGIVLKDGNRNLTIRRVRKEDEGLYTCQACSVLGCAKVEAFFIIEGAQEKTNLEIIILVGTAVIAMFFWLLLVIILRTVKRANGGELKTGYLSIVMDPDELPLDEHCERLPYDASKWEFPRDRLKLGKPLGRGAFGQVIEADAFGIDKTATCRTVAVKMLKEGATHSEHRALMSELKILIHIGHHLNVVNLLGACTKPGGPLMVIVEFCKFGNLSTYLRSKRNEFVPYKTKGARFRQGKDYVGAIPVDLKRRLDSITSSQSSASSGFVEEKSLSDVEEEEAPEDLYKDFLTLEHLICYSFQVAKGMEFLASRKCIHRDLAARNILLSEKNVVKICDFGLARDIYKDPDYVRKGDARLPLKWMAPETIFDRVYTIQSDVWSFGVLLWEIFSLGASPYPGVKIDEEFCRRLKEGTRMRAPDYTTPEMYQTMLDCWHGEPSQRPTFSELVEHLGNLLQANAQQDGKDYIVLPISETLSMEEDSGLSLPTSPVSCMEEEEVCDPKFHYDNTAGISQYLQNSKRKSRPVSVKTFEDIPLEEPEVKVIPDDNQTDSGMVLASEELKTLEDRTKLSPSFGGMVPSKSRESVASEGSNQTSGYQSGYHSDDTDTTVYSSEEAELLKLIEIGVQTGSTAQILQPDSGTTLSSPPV
Procedure: Recombinant VEGF receptor tyrosine kinase-2 was purified as GST fusion protein from baculovirus-infected insect cells (Sf9). Poly-(Glu4Tyr), used as kinase substrate, was purchased from Sigma.
VEGF receptor tyrosine kinase (90 ng/measuring point) was incubated for 10 min at 22° C. in the presence of various concentrations of test substances (0 μM, and within the range 0.001-30 μM) in 30 μl assay buffer [40 mM Tris/HCl pH5.5, 10 mM MgCl2, 1 mM MnCl2, 3 μM Na ortho-vanadate, 1.0 mM dithiothreitol, 8 μM adenosine triphosphate (ATP), 0.96 μg/measuring point poly-(Glu4Tyr), 0.2 μCi/measuring point ^33P-gamma ATP, 1.4% dimethyl sulfoxide]. The reaction was stopped by adding EDTA solution (250 mM, pH 8.0, 15 μl/measuring point).
From each reaction mixture, 15 μl was applied to P30 filter strips (from Wallac), and unincorporated ^33P-ATP was removed by washing the filter strips three times, for 10 min each time, in 0.5% phosphoric acid. After drying the filter strips for 1 hour at 70° C., the filter strips were covered with scintillator strips (MeltiLex™ A, from Wallac) and stoved for 1 hour at 90° C. The amount of incorporated ^33P (substrate phosphorylation) was determined by scintillation measurement in a gamma-radiation measuring instrument (Wallac). The measured data were standardized to 0% inhibition (enzyme reaction without inhibitor) and 100% inhibition (all assay components except enzyme). The IC50 values were determined by means of a 4-parameter fit using the company's own software.

OVCAR-8 = assay: Proliferation assay OVCAR-8; type: cell-based; conditions: Homo sapiens, 96 h; OVCAR-8, ovarial carcinoma; 4 days, crystal violet
Procedure: as §1, with “After washing the fixed cells with water three times, the plates were dried at room temperature. The cells were stained by adding 100 μl/measuring point of a 0.1% crystal violet solution (pH adjusted to pH3 by adding acetic acid). After washing the stained cells with water three times, the plates were dried at room temperature. The dye was dissolved by adding 100 μl/measuring point of a 10% acetic acid solution.” left out, “The measured data were standardized to 0% inhibition (cell proliferation without inhibitor) and 100% inhibition (zero-point plate).” left out, “software. […]” for “software.”

NCI-H69 = assay: Proliferation assay NCI-H69; type: cell-based; conditions: Homo sapiens, 96 h; NCI-H69, small-cell bronchial carcinoma; 4 days, crystal violet
Procedure: as §1, with “After washing the fixed cells with water three times, the plates were dried at room temperature. The cells were stained by adding 100 μl/measuring point of a 0.1% crystal violet solution (pH adjusted to pH3 by adding acetic acid). After washing the stained cells with water three times, the plates were dried at room temperature. The dye was dissolved by adding 100 μl/measuring point of a 10% acetic acid solution.” left out, “The measured data were standardized to 0% inhibition (cell proliferation without inhibitor) and 100% inhibition (zero-point plate).” left out, “software. […]” for “software.”

MIA PaCa-2 = assay: Proliferation assay MIA PaCa-2; type: cell-based; conditions: Homo sapiens, 96 h; MIA PaCa-2, pancreas carcinoma; 4 days, crystal violet
Procedure: as §1, §2

HeLa-MaTu = assay: Proliferation assay HeLa-MaTu; type: cell-based, human; conditions: cervix carcinoma, 4 days, crystal violet
Procedure: as §1, §2

MOLM-13 = assay: Proliferation assay MOLM-13; type: cell-based; conditions: Homo sapiens, 96 h; MOLM-13, leukemia; 4 days, crystal violet
Procedure: as §1, with “After washing the fixed cells with water three times, the plates were dried at room temperature. The cells were stained by adding 100 μl/measuring point of a 0.1% crystal violet solution (pH adjusted to pH3 by adding acetic acid). After washing the stained cells with water three times, the plates were dried at room temperature. The dye was dissolved by adding 100 μl/measuring point of a 10% acetic acid solution.” left out, “The measured data were standardized to 0% inhibition (cell proliferation without inhibitor) and 100% inhibition (zero-point plate).” left out, “software. […]” for “software.”

NCI-ADR-Res = assay: Proliferation assay NCI-ADR-Res; type: cell-based; conditions: Homo sapiens, 96 h, ovarial carcinoma, 4 days, crystal violet
Procedure: as §1, §2

H1975 = assay: Proliferation assay H1975; type: cell-based; conditions: Homo sapiens, NCI-H1975, 96 h; H1975, non-small-cell bronchial carcinoma; 4 days, crystal violet
Procedure: as §1, §2

SMILES: C[C@@H](O)[C@@H](C)Oc1nc(Nc2ccc(S(=N)(=O)C3CC3)cc2)ncc1C(F)(F)F (mixture of isomers) [Example 1-SI-2, (RS)—S-Cyclopropyl-S-(4-{[4-{[(1R,2R)-2-hydroxy-1-methylpropyl]oxy}-5-(trifluoromethyl)-pyrimidin-2-yl]amino}phenyl)sulfoximide]
- IC50 (Caki2): 26 nM
- IC50 (MDA-MB 453): 15 nM
- IC50 (Caco-2): 16 nM
- IC50 (786-O): 20 nM
- IC50 (SK-BR-3): 13 nM
- IC50 (MDA-MB 231): 18 nM
- IC50 (HCT116): 18 nM
- IC50 (DU145): 8 nM
- IC50 (A375): 14 nM
- IC50 (NCI-H460): 12 nM
- IC50 (MCF7): 15 nM
- IC50 (HeLa-MaTu-ADR): 8 nM
- IC50 (A431): 14 nM
- IC50 (PC3): 25 nM
- IC50 (SW480): 15 nM
- IC50 (HT29): 29 nM
- IC50 (A549): 20 nM
- IC50 (HeLa): 12 nM
- IC50 [1]: 163 nM
- IC50 (OVCAR-8): 12 nM
- IC50 (NCI-H69): 37 nM
- IC50 (MIA PaCa-2): 21 nM
- IC50 (HeLa-MaTu): 11 nM
- IC50 (MOLM-13): 14 nM
- IC50 (NCI-ADR-Res): 33 nM
- IC50 (H1975): 11 nM
